In paper PMC11555231 (Nature Communications, 2024):
Read-outs that look alike come from different tables or passages of the source. Bridge positions count the residues as written; N and C are the ends. Square brackets hold non-standard residues; d marks the D form. Peptide text beside a SMILES is read from it.

Tests used:
Bio-hPADI4 wt = target: T1, Bio-hPADI4 wt (Homo sapiens, UniProt Q9UM07); experiment: Surface plasmon resonance (SPR), single cycle kinetics, peptide binding to immobilised PADI4
T1 construct: PADI4 (residues 1–663); Avi-Tag (biotinylated by BirA); made in house; host or cells: E. coli BL21-DE3 co-expressing BirA
T1 sequence (Q9UM07 whole entry, the tested form may be a part): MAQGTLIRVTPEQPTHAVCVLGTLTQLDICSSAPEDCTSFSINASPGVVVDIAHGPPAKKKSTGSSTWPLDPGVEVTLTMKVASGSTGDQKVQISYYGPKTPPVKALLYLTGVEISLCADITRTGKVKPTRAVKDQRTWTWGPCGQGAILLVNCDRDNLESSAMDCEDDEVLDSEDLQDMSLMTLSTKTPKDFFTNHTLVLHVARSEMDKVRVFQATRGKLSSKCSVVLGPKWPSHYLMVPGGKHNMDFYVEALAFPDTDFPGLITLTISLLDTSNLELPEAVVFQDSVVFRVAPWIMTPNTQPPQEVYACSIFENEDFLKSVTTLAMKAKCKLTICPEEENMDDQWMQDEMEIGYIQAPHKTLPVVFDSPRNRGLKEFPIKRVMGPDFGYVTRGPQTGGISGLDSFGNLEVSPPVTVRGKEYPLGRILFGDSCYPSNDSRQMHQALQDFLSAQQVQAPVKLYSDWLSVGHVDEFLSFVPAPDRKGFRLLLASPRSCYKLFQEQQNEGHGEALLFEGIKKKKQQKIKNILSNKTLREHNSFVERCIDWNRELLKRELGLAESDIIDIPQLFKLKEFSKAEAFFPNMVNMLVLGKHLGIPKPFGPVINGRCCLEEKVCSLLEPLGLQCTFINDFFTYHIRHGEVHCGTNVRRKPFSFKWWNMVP
Description: Single cycle kinetics analysis by SPR was carried out using a Biacore T200 or S200 and a Biotin CAPture kit, series S (Cytiva). […] 50 mM HEPES (pH 7.5), 150 mM NaCl, 2 mM DTT, 0.05 % Tween-20, 0.1% DMSO and variable CaCl2 (as specified) was used as the running buffer and experiments performed at 25 °C.
Samples were run with 120 s contact time, and variable dissociation time (often 360 s). Data were analysed using the Biacore T200 analysis software; data was fitted to a 1:1 binding model accounting for baseline drift where necessary. Data are presented as the average ± standard deviation of at least two independent replicates.

human neutrophils = experiment: Time-lapse imaging and NET quantification (NETosis); type: cell-based
Description: Peripheral venous blood was isolated from consenting healthy adult volunteers in heparin tubes as previously described. Briefly, blood samples were on Histopaque 1119 (Sigma-Aldrich) and then centrifuged for 20 min at 800 × g. The plasma was collected and centrifuged for a second time for 20 min at 800 × g. The neutrophil layer was collected and washed in Hyclone Hank’s Balanced Salt Solution (HBSS) -Ca, -Mg, -Phenol red (GE Healthcare) supplemented with 10 mM HEPES (Invitrogen) 0.1% FBS and further purified with a discontinuous Percoll (GE Healthcare) gradient consisting of layers with densities of 85, 80, 75, 70 and 65% and centrifuged for 20 min at 800 × g. Neutrophil-enriched layers were then collected and washed, and neutrophil purity was assessed using flow cytometry.
About 5 × 10^4 human neutrophils were seeded in a black 96-well plate (PerkinElmer) in HyClone HBSS +Ca, +Mg, - Phenol red (GE Healthcare) containing 10 mM HEPES (Invitrogen). Cells were pre-incubated with the corresponding peptide for 60 min prior to the start of the experiment. DNA of live cells was stained with 4 µg/mL Hoechst (membrane permeable; Thermo Scientific) and DNA from dead cells with 0.2 µM Sytox-green (membrane impermeable; Invitrogen). Cells were stimulated with 100 nM PMA, 5 µM Ca-Ionophore or 0.1 mg/mL cholesterol crystals at the start of the microscope acquisition. Plates stimulated with cholesterol crystals were centrifuged at 300×g for 5 min at RT immediately prior to microscope acquisition. The cells were imaged on an inverted Nikon wide-field microscope system at 37 °C and CO2 (5%). Four fields of view were acquired per well every 15 mins for 10–15 h using a 40x objective. NETs were differentiated from necrotic cells by the size of the sytox signal using FIJI[86]. […] [85]. Area measurements were distributed into bins of increasing area sizes and plotted as a percentage of the total number of Sytox-green positive (dead) cells.

[1] = DNA area (μm) 1500, replicate 1
[2] = DNA area (μm) 1500, replicate 2
[3] = DNA area (μm) 1500, replicate 4

Structure (SMILES): CC[C@H](C)[C@@H]1NC(=O)[C@H](CC(C)C)NC(=O)[C@H](Cc2c[nH]c3ccccc23)NC(=O)[C@@H]2CCCN2C(=O)[C@H]([C@@H](C)O)NC(=O)[C@H](C)NC(=O)[C@@H](Cc2ccc(O)cc2)NC(=O)CSC[C@@H](C(=O)NCC(N)=O)NC(=O)[C@H](CC(C)C)NC(=O)[C@H](C(C)C)NC(=O)[C@H](C(C)C)NC1=O [PADI4_5] ({CH2CO}-[dY]ATPWLIVVLCG-NH2; thioether N-11)
- Kd (Bio-hPADI4 wt; 0 mM CaCl2, 25 °C, read-out: KD 0 mM CaCl2, bound printed in µM): > 2 µM
- Kd (Bio-hPADI4 wt; 10 mM CaCl2, PADI4 active site blocked with Cl-amidine, 25 °C, read-out: KD 10 mM CaCl2 + Cl-amidine, bound given in µM): > 2 µM
- Kd (Bio-hPADI4 wt; 10 mM CaCl2 in running buffer, 25 °C, read-out: KD 10 mM CaCl2, bound printed in µM): > 2 µM

Structure (SMILES): N=C(N)NCCC[C@@H]1NC(=O)[C@H](Cc2ccc(O)cc2)NC(=O)[C@H](Cc2c[nH]cn2)NC(=O)[C@H](Cc2c[nH]cn2)NC(=O)[C@H](CC(=O)O)NC(=O)[C@H](CCCNC(=N)N)NC(=O)[C@@H](Cc2ccc(O)cc2)NC(=O)CSC[C@@H](C(=O)NCC(N)=O)NC(=O)[C@H](Cc2ccc(O)cc2)NC(=O)[C@H](CCCCN)NC(=O)[C@@H]2CCCN2C(=O)[C@H](Cc2c[nH]cn2)NC1=O [PAD4-3] ({CH2CO}-[dY]RDHHYRHPKYCG-NH2; thioether N-12)
- share per DNA area bin (human neutrophils; DNA area (μm) 150, replicate 1): 61.7647
- share per DNA area bin (human neutrophils; DNA area (μm) 150, replicate 2): 57.1429
- share per DNA area bin (human neutrophils; DNA area (μm) 150, replicate 3): 62.8571
- share per DNA area bin (human neutrophils; DNA area (μm) 150, replicate 4): 54.7619
- share per DNA area bin (human neutrophils; DNA area (μm) 250, replicate 1): 14.7059
- share per DNA area bin (human neutrophils; DNA area (μm) 250, replicate 2): 5.7143
- share per DNA area bin (human neutrophils; DNA area (μm) 250, replicate 3): 5.7143
- share per DNA area bin (human neutrophils; DNA area (μm) 250, replicate 4): 21.4286
- share per DNA area bin (human neutrophils; DNA area (μm) 750, replicate 1): 23.5294
- share per DNA area bin (human neutrophils; DNA area (μm) 750, replicate 2): 37.1429
- share per DNA area bin (human neutrophils; DNA area (μm) 750, replicate 3): 31.4286
- share per DNA area bin (human neutrophils; DNA area (μm) 750, replicate 4): 23.8095
- share per DNA area bin (human neutrophils; [1]): 0
- share per DNA area bin (human neutrophils; [2]): 0
- share per DNA area bin (human neutrophils; DNA area (μm) 1500, replicate 3): 0
- share per DNA area bin (human neutrophils; [3]): 0

Structure (SMILES): CC(C)C[C@H](NC(=O)[C@H](CCC(N)=O)NC(=O)[C@H](CC(C)C)NC(=O)[C@@H](NC(=O)[C@H](C)NC(=O)[C@H](CCCNC(=N)N)NC(=O)[C@H](Cc1ccc(O)cc1)NC(=O)[C@H](CCCNC(=N)N)NC(=O)[C@@H]1CSCC(=O)N[C@@H](Cc2ccc(O)cc2)C(=O)N[C@@H](CCC(=O)O)C(=O)N[C@@H](CO)C(=O)N1)C(C)C)C(N)=O [Q8A] ({CH2CO}-YESCRYRAVLQL-NH2; thioether N-4)
- Kd (Bio-hPADI4 wt; Fig. 5D, mean ± SEM of three independent repeats, read-out: KD (µM) of PADI4_11 analogues): 0.5 ± 0.3 µM

Structure (SMILES): N=C(N)NCCC[C@@H]1NC(=O)[C@H](CC(=O)O)NC(=O)[C@@H](Cc2ccc(O)cc2)NC(=O)CSC[C@@H](C(=O)NCC(N)=O)NC(=O)[C@H](Cc2ccc(O)cc2)NC(=O)[C@H](CCCCN)NC(=O)[C@@H]2CCCN2C(=O)[C@H](Cc2c[nH]cn2)NC(=O)[C@H](CCCNC(=N)N)NC(=O)[C@H](Cc2ccc(O)cc2)NC(=O)[C@H](Cc2c[nH]cn2)NC(=O)[C@H](Cc2c[nH]cn2)NC1=O [PAD4-3inv] ({CH2CO}-[dY]DRHHYRHPKYCG-NH2; thioether N-12)
- share per DNA area bin (human neutrophils; DNA area (μm) 150, replicate 1): 64
- share per DNA area bin (human neutrophils; DNA area (μm) 150, replicate 2): 52.1739
- share per DNA area bin (human neutrophils; DNA area (μm) 150, replicate 3): 52.1739
- share per DNA area bin (human neutrophils; DNA area (μm) 150, replicate 4): 45.1613
- share per DNA area bin (human neutrophils; DNA area (μm) 250, replicate 1): 20
- share per DNA area bin (human neutrophils; DNA area (μm) 250, replicate 2): 0
- share per DNA area bin (human neutrophils; DNA area (μm) 250, replicate 3): 17.3913
- share per DNA area bin (human neutrophils; DNA area (μm) 250, replicate 4): 22.5806
- share per DNA area bin (human neutrophils; DNA area (μm) 750, replicate 1): 16
- share per DNA area bin (human neutrophils; DNA area (μm) 750, replicate 2): 47.8261
- share per DNA area bin (human neutrophils; DNA area (μm) 750, replicate 3): 30.4348
- share per DNA area bin (human neutrophils; DNA area (μm) 750, replicate 4): 29.0323
- share per DNA area bin (human neutrophils; [1]): 0
- share per DNA area bin (human neutrophils; [2]): 0
- share per DNA area bin (human neutrophils; [3]): 3.2258
